Experimental data from patent US6495131B1, “Interleukin-3 gene therapy for cancer” (priority 1998, dated 2002).

System: ROS-1 osteosarcoma
Test: Tumor growth of ROS-1 osteosarcoma in hindlimb after ILP or intra-tumoral injection
Format: in vivo
Details: ROS-1, ILP 15 minutes, 1.10^9 iu vector plus 50 μg TNFα, 40 μg melphalan or 200 μg doxorubicin per rat
Description: The rapidly growing ROS-1 osteosarcoma originated spontaneously in the tibia of a Wag/Rij rat (Barendsen et al. (1987)). The ROS-1 was implanted subcutaneously in the flank of donor Wag/Rij rats and passaged serially. The ROS-1 has a tumor doubling time of 5 days.
Fragments of the BN175 or ROS-1 (osteo)sarcoma were subcutaneously implanted into the right hindlimb of the experimental animals just above the ankle. The tumor size was measured regularly by caliper measurement in two dimensions. When the tumor reached a volume of 180-524 mm^3 (diameter between 7 and 10 mm) an isolated limb perfusion (ILP) with the recombinant adenoviral vector was performed. As a control, tumor bearing rats underwent ILP without the addition of said recombinant adenoviral vectors (termed sham ILP). An other group of tumor bearing rats underwent a direct intra-tumor injection with said recombinant adenoviral vector. The tumor volume was between 180-524 mm^3). After ILP or direct intra-tumor injection the tumor size was measured every (mon-fri)day.
Surgical procedures were performed under Hypnorm anaesthesia. […] After an incision parallel to the inguinal ligament the femoral and vein were approached and cannulated with silastic tubing (0.30 mm ID, 0.64 mm OD; 0.64 mm, 1.19 OD, respectively, Degania Silicone, Degania Bet, Israel). Collaterals were temporarily occluded by the application of a tourniquet around the groin, which was fixed to the inguinal ligament. An oxygenation reservoir and a roller pump (Masterflex) were included in the vascularly isolated circuit, which was, initially, perfused with haemaccel (Behring Pharma, Amsterdam, The Netherlands) for 3 minutes at a flow speed of 2 ml/min to wash out the blood. After the first wash out step, recirculation was performed with recombinant adenoviruses (50 μl-1 ml, containing approximately 10^9 infectious units (i.u.)) dissolved in 2.5-3.5 ml Haemaccel at the same flow rate for a time period ranging from 5 to 30 minutes. Followed by a second perfusion step of 5 minutes to wash out the non-bound virus with Haemaccel. […]

| Compound | effect of addition to the IG.Ad.CMV.rIL-3 perfusion on the antitumor response |
| --- | --- |
| COc1cccc2c1C(=O)c1c(O)c3c(c(O)c1C2=O)C[C@@](O)(C(=O)CO)C[C@@H]3O[C@H]1C[C@H](N)[C@H](O)[C@H](C)O1 [doxorubicin] | does not influence the antitumor response |
| N[C@@H](Cc1ccc(N(CCCl)CCCl)cc1)C(=O)O [melphalan] | does not influence the antitumor response |
| TNFα | does not influence the antitumor response |
